The record followed here is patent publication US8034818B2, “Therapeutic uses of derivatives of piperidinyl- and piperazinyl-alkyl carbamates” (Sanofi-Aventis, priority 2004, dated 2011).

Where a name gives a salt, the structure may show the parent alone.

Tested on in the first data set: not given
Assay: not given
Conditions: not given
Regarding `CNC(=O)COC(=O)NCCN1CCN(c2cccc3ccccc23)CC1` (as salt: hydrochloride) [Compound 38, 2-(Methylamino)-2-oxoethyl 2-[4-(1-naphthyl)-1-piperazinyl]ethylcarbamate hydrochloride], the melting point (usually the temperature of the solid-liquid transition) turned out to be 166 °C. Compound `CNC(=O)COC(=O)NCCC1CCN(c2cccc(C)n2)CC1` (as salt: hydrochloride) [Compound 47, 2-(Methylamino)-2-oxoethyl 2-[1-(6-methyl-2-pyridyl)-4-piperidyl]ethylcarbamate hydrochloride] showed a melting point of 95 to 100 °C. For `CNC(=O)COC(=O)NCC1CCN(c2nccc3ccccc23)CC1` (as salt: hydrochloride) [Compound 154, 2-(Methylamino)-2-oxoethyl [1-(1-isoquinolyl)-4-piperidyl]methylcarbamate hydrochloride], the melting point is 208 to 212 °C (dec.). In turn, `CNC(=O)COC(=O)NCCC1CCN(c2cncc3ccccc23)CC1` (as salt: hydrochloride) [Compound 172, 2-(Methylamino)-2-oxoethyl 2-[1-(4-isoquinolyl)-4-piperidyl]ethylcarbamate hydrochloride] showed a melting point of 205 to 210 °C. Take `NC(=O)COC(=O)NCCC1CCN(c2cccc(C(F)(F)F)c2)CC1` [Compound 44, 2-Amino-2-oxoethyl 2-{1-[3-(trifluoromethyl)phenyl]-4-piperidyl}ethylcarbamate]: the melting point was in the range of 140 to 142 °C. Same read-out and setting: under `CNC(=O)COC(=O)NCCC1CCN(c2cccc(CC(C)C)n2)CC1` [Compound 49, 2-(Methylamino)-2-oxoethyl 2-[1-(6-isobutyl-2-pyridyl)-4-piperidyl]ethylcarbamate] stands 97 to 99 °C.

`NC(=O)COC(=O)NCC1CCN(c2cccc(-c3ccccc3)n2)CC1` [Compound 58, 2-Amino-2-oxoethyl 2-[1-(6-phenyl-2-pyridyl)-4-piperidyl]methylcarbamate] gave a melting point of 131 to 132 °C. `CNC(=O)COC(=O)NCCC1CCN(c2ccc3ccccc3n2)CC1` [Compound 126, 2-(Methylamino)-2-oxoethyl 2-[1-(2-quinolyl)-4-piperidyl]ethylcarbamate] showed a melting point of 125 to 128 °C. In the case of `NC(=O)COC(=O)NCCC1CCN(c2ccc3ccccc3n2)CC1` [Compound 127, 2-Amino-2-oxoethyl 2-[1-(2-quinolyl)-4-piperidyl]ethylcarbamate], the melting point lay within 135 to 137 °C. `CNC(=O)COC(=O)NCCC1(F)CCN(c2ccc3ccccc3n2)CC1` [Compound 128, 2-(Methylamino)-2-oxoethyl 2-[4-fluoro-1-(2-quinolyl)-4-piperidyl]ethylcarbamate] showed a melting point of 147 to 149 °C. `CNC(=O)COC(=O)NCCC1CCN(c2ccc3c(Cl)cccc3n2)CC1` [Compound 130, 2-(Methylamino)-2-oxoethyl 2-[1-(5-chloro-2-quinolyl)-4-piperidyl]ethylcarbamate] registered a melting point of 158 to 162 °C. `NC(=O)COC(=O)NCCC1CCN(c2ccc3cc(Cl)ccc3n2)CC1` [Compound 137, 2-Amino-2-oxoethyl 2-[1-(6-chloro-2-quinolyl)-4-piperidyl]ethylcarbamate] came in with a melting point of 189 to 191 °C. In turn, `NC(=O)COC(=O)NCCC1CCN(c2nccc3cc(F)ccc23)CC1` [Compound 158, 2-Amino-2-oxoethyl 2-[1-(6-fluoro-1-isoquinolyl)-4-piperidyl]ethylcarbamate] had a melting point of 135 to 139 °C.

On to `CNC(=O)COC(=O)NCCC1CCN(c2cc3ccccc3cn2)CC1` [Compound 166, 2-(Methylamino)-2-oxoethyl 2-[1-(3-isoquinolyl)-4-piperidyl]ethylcarbamate], for which the melting point lay within 156 to 158 °C.

Another data set concerns male OF1 mice. As to the kind of experiment: test of analgesia: abdominal tractions induced with PBQ (phenylbenzoquinone) i.p. To be noted: (a) 1 mg/kg p.o. at 2 hours, PBQ 2 mg/kg i.p. It counts as in vivo, mouse. On the procedure: The in vivo activity of the compounds of the invention was evaluated in a test of analgesia.
Thus, the intraperitoneal (i.p.) administration of PBQ (phenylbenzoquinone, 2 mg/kg in 0.9% sodium chloride solution containing 5% ethanol) to male OF1 mice weighing 25 to 30 g, causes abdominal tractions, on average 30 torsions or contractions during the period of 5 to 15 minutes after injection. The test compounds are administered orally or intraperitoneally as a 0.5% suspension in Tween 80, 60 minutes or 120 minutes before the administration of PBQ. Under these conditions, the most powerful compounds of the invention produce a 35% to 70% reduction in the number of tractions induced with PBQ, within a dose range of between 1 and 30 mg/kg.
For `CNC(=O)COC(=O)NCCC1CCN(c2cc3ccccc3cn2)CC1` [Compound 166, 2-(Methylamino)-2-oxoethyl 2-[1-(3-isoquinolyl)-4-piperidyl]ethylcarbamate], the “Reduction in the number of tractions (%)” value is −62% (a).

Staying with this data set, now noted: (b) 3 mg/kg p.o. at 1 hour, PBQ 2 mg/kg i.p.
`CNC(=O)COC(=O)NCCC1CCN(c2cccc(C)n2)CC1` [Compound 47, 2-(Methylamino)-2-oxoethyl 2-[1-(6-methyl-2-pyridyl)-4-piperidyl]ethylcarbamate hydrochloride]: the “Reduction in the number of tractions (%)” value was −63% (b). For the compound `CNC(=O)COC(=O)NCCC1CCN(c2ccc3ccccc3n2)CC1` [Compound 126, 2-(Methylamino)-2-oxoethyl 2-[1-(2-quinolyl)-4-piperidyl]ethylcarbamate], the “Reduction in the number of tractions (%)” value is given as −43% (b).
